The C3SDB collision cross section collection
Values joined by “and” are separate entries in the source; they are usually repeats but may differ in a detail not shown here. Identical values can stand only once.

Assays:
[1] = instrument: DT, stepped-field
[2] = instrument: DT, single field, calibrated with Agilent tune mix (Agilent)

Row | collision cross section (N2) ([1]; [M+H]+) | collision cross section (N2) ([1]; [M+Na]+) | Structure (SMILES) | also measured
1 | 151.07 Å² |  | Nc1ccccc1C(=O)CC(N)C(=O)O (configuration not stated) [Kynurenine] | 
2 |  | 125.44 Å² | CC(=O)OP(=O)(O)O [Acetyl Phosphate] | 
3 |  | 191.83 Å² | CCCCCC(O)/C=C/C=C\CCCCCCCC(=O)O (configuration not stated) [13-HODE] | 
4 |  | 239.53 Å² | CCCCCCCC/C=C\CCCCCCCC(=O)OC[C@@H](O)COP(=O)([O-])OCC[N+](C)(C)C [18:1 Lyso PC] | 
5 |  | 144.07 Å² | O=C(CO)COP(=O)(O)O [Dihydroxyacetone Phosphate] | 
6 | 181 Å² | 184.12 Å² | NC(=O)[C@@H]1CCCN1C(=O)[C@H](Cc1cnc[nH]1)NC(=O)[C@@H]1CCC(=O)N1 [Thyrotropin-releasing hormone] | 
7 | 154.22 Å² |  | N[C@@H](Cc1c[nH]c2ccccc12)C(=O)O [L-Tryptophan] | 
8 |  | 197.87 Å² | CC/C=C\C[C@H](O)/C=C/C=C\C=C\C=C\[C@@H](O)[C@@H](O)C/C=C\CCC(=O)O [Resolvin D1] | 
9 |  | 149.53 Å² | CSCC[C@H](NC=O)C(=O)O [N-Formyl-L-methionine] | 
10 | 138.98 Å² |  | O=C(O)c1cccnc1C(=O)O [Quinolinic Acid] | 
11 |  | 237.34 Å² | CCCCCCCC/C=C\CCCCCCCC(=O)OC[C@@H](O)COP(=O)([O-])OCC[N+](C)(C)C [LPC 18:1] | 
12 | 150.17 Å² | 155.27 Å² | CC(C)(CO)[C@@H](O)C(=O)NCCC(=O)O [D-Pantothenic Acid] | 
13 |  | 133.58 Å² | O=C(O)/C=C/C(=O)O [Fumaric Acid] | 
14 |  | 143.7 Å² | CC(=O)N[C@@H](CC(=O)O)C(=O)O [N-Acetyl-L-aspartic Acid] | 
15 |  | 156.44 Å² | O=C(CO)[C@@H](O)[C@H](O)[C@H](O)COP(=O)(O)O [Fructose-6-phosphate] | 
16 | 155.67 Å² | 162.74 Å² | CC(=O)N[C@H](Cc1c[nH]c2ccccc12)C(=O)O [N-Acetyl-D-tryptophan] | 
17 |  | 185.22 Å² | CCCCCCCCCCCCCCCC(=O)O [Palmitic Acid] | 
18 | 147.46 Å² | 147.22 Å² | N[C@@H](CCOC(=O)CCC(=O)O)C(=O)O [O-Succinyl-L-homoserine] | 
19 |  | 149.57 Å² | COc1cc(CC(=O)O)ccc1O [Homovanillic Acid] | 
20 | 146.82 Å² | 154.06 Å² | O=C(O)CNC(=O)c1ccccc1 [Hippuric Acid] | 

Further lines, the molecule ahead of its results:

Row | Structure (SMILES) | collision cross section (N2) ([1]; [M+H]+) | collision cross section (N2) ([1]; [M+Na]+) | also measured
21 | COc1ccc(-c2cc(=O)c3c(OC)c(OC)c(OC)c(OC)c3o2)cc1 [Tangeritin] | 187.9 Å² | 208.15 Å² | 
22 | NC(=O)c1ccc[n+]([C@@H]2O[C@H](COP(=O)([O-])O)[C@@H](O)[C@H]2O)c1 [Nicotinamide Mononucleotide] | 167.13 Å² |  | 
23 | CC(=O)SCCNC(=O)CCNC(=O)[C@H](O)C(C)(C)COP(=O)(O)OP(=O)(O)OC[C@H]1O[C@@H](n2cnc3c(N)ncnc32)[C@H](O)[C@@H]1OP(=O)(O)O [Acetyl coenzyme A] | 249.8 Å² | 263.07 Å² | 
24 | COc1cc2c(cc1O)CC[C@@H]1[C@@H]2CC[C@]2(C)C(=O)CC[C@@H]12 [2-Methoxyestrone] | 174.47 Å² | 201.71 Å² | 
25 | OC1OC[C@H](O)[C@H](O)[C@H]1O (stereo partly drawn) [L-Arabinose] |  | 141.86 Å² | 
26 | O=C1O[C@H]([C@@H](O)CO)C(O)=C1O [L-Ascorbic Acid] |  | 146.11 Å² | 
27 | Cn1c(N)nc2c(ncn2[C@@H]2O[C@H](CO)[C@@H](O)[C@H]2O)c1=O [1-Methylguanosine] | 168.8 Å² | 180.8 Å² | 
28 | O=C(O)Cc1c[nH]c2ccccc12 [Indoleacetic Acid] | 138.11 Å² |  | 
29 | CCCCCCCCCCCCCCCC/C=C\OC[C@@H](O)COP(=O)([O-])OCC[N+](C)(C)C [LPC(p18:0)] | 236.8 Å² | 238.37 Å² | 
30 | COc1cc(-c2[o+]c3cc(O)cc(O)c3cc2O)cc(OC)c1O [Malvidin] |  |  | collision cross section (N2) ([1]; [M]+): 178.55 Å²
31 | O=C(O)C1=CC(=O)[C@@H](O)[C@H](O)C1 [3-Dehydroshikimic Acid] | 132.73 Å² |  | 
32 | OCCNCCO [Diethanolamine] | 123.33 Å² |  | 
33 | CC/C=C\C/C=C\C/C=C\C/C=C\C/C=C\C/C=C\CCC(=O)O [Docosahexaenoic Acid] | 184.62 Å² | 185.06 Å² | 
34 | CCCCCCCC/C=C/CCCCCCCC(=O)OC[C@H](COP(=O)(O)OC[C@@H](O)CO)OC(=O)CCCCCCC/C=C/CCCCCCCC [PG(18:1/18:1)] | 294.47 Å² and 294.81 Å² | 285.26 Å² and 289.31 Å² | 
35 | O=C(O)/C=C/c1cnc[nH]1 [Urocanate] | 137.54 Å² |  | 
36 | Cc1cccc2ccccc12 [1-methylnaphthalene] | 125.2 Å² |  | 
37 | C[C@]12CCC(=O)C=C1CC[C@@H]1[C@@H]2[C@@H](O)C[C@@]2(C)[C@H]1CC[C@]2(O)C(=O)CO [Cortisol] | 188.88 Å² | 213.91 Å² | 
38 | C=C(C)[C@H]1Cc2c(ccc3c2O[C@@H]2COc4cc(OC)c(OC)cc4[C@@H]2C3=O)O1 [Rotenone] | 199.63 Å² | 213.17 Å² | 
39 | CCCCC/C=C\C/C=C\CCCCCCCCCC(=O)O [Icosadienoic Acid] |  | 184.05 Å² | 
40 | Cc1cc2nc3c(=O)[nH]c(=O)nc-3n(C[C@H](O)[C@H](O)[C@H](O)CO)c2cc1C [Riboflavin] | 192.43 Å² | 199.4 Å² | 
41 | NCCCNCCCN [Bis(3-aminopropyl)amine] | 128.52 Å² |  | 
42 | Nc1ccccc1S(=O)(=O)O [Aniline-2-sulfonic Acid] |  | 153.23 Å² | 
43 | CC(C)=CCC/C(C)=C/CC/C(C)=C/CC/C(C)=C/CC1=C(C)C(=O)c2ccccc2C1=O [Vitamin K2] | 198.66 Å² |  | 

Row | Structure (SMILES) | collision cross section (N2) ([1]; [M+H]+) | collision cross section (N2) ([1]; [M+Na]+) | also measured
44 | O=C(O)Cc1cnc[nH]1 [Imidazole-4-acetic Acid] | 128.23 Å² | 148.03 Å² | 
45 | COc1c(Cl)ccc(Cl)c1C(=O)O [Dicamba] |  | 157.21 Å² | 
46 | CSC[C@H]1O[C@@H](n2cnc3c(N)ncnc32)[C@H](O)[C@@H]1O [5'-Methylthioadenosine] | 173.03 Å² | 176.54 Å² | 
47 | OC[C@H]1O[C@@H](O[C@H]2[C@H](O)[C@@H](O)[C@H](O[C@H]3[C@H](O)[C@@H](O)C(O)O[C@@H]3CO)O[C@@H]2CO)[C@H](O)[C@@H](O)[C@@H]1O (some centres not stated) [Cellotriose] |  | 215.69 Å² | 
48 | O=c1ccc2ccc(O)cc2o1 [Umbelliferone] |  | 154.46 Å² | 
49 | COc1cc(O)c2c(=O)c(-c3ccc(O)cc3)coc2c1 [Prunetin] | 166.26 Å² | 181.44 Å² | 
50 | O=c1ccn([C@H]2C[C@H](O)[C@@H](CO)O2)c(=O)[nH]1 [Deoxyuridine] |  | 159.45 Å² | 
51 | Nc1ncnc2c1ncn2[C@@H]1O[C@H](COP(=O)(O)O)[C@@H](O)[C@H]1O [Adenosine 5' Monophosphate] | 173.33 Å² | 180.73 Å² | 
52 | C[C@]12CC[C@@H](O)C[C@H]1CC[C@@H]1[C@@H]2[C@@H](O)C[C@@]2(C)[C@H]1CC[C@]2(O)[C@H](O)CO [B-Cortol] |  | 204.59 Å² | 
53 | Cc1ccc2c(c1)[C@H](Nc1nc(N)nc(C(C)F)n1)[C@@H](C)C2 (some centres not stated) [Indaziflam] | 169.27 Å² | 174.6 Å² | 
54 | Cc1ncc(CO)c(C(=O)O)c1O [4-Pyridoxate] | 137.27 Å² | 151.78 Å² | 
55 | COc1ccc(-c2coc3cc(O)ccc3c2=O)cc1 [Formononetin] |  | 176.14 Å² | 
56 | CCCCC[C@@H](/C=C/[C@@H]1[C@@H](C/C=C\CCCC(=O)O)[C@@H]2C[C@H]1OO2)OO [Prostaglandin G2] |  | 199.3 Å² | 
57 | COc1ccc2cc([C@H](C)C(=O)O)ccc2c1 [Naproxen] | 154.83 Å² | 163.87 Å² | 
58 | O=C(O)c1cc(=O)[nH]c(=O)[nH]1 [Orotic Acid] | 138.85 Å² | 181.87 Å² | 
59 | O=c1c2cc(O)c(O)cc2oc2cc(O)c([C@@H]3O[C@H](CO)[C@@H](O)[C@H](O)[C@H]3O)c(O)c12 [Mangiferin] | 196.62 Å² |  | 
60 | C=CCc1ccc(OC)c(OC)c1 [Methyleugenol] | 138.94 Å² | 160.36 Å² | 
61 | C[C@@H]1OC(O)[C@H](O)[C@H](O)[C@H]1O (stereo partly drawn) [L-Rhamnose] |  | 146.3 Å² | 
62 | O=C(O)c1cc(=O)c2ccccc2[nH]1 [Kynurenic Acid] | 140.99 Å² | 154.12 Å² | 
63 | Cc1cc2nc3c(=O)[nH]c(=O)nc-3n(C[C@H](O)[C@H](O)[C@H](O)COP(=O)(O)O)c2cc1C [Flavin mononucleotide] |  |  | collision cross section (N2) ([2]; [M+H]+): 199.1 Å²; collision cross section (N2) ([2]; [M-H]-): 194.92 Å²
64 | OC[C@H]1O[C@H](O[C@H]2O[C@H](CO)[C@@H](O)[C@H](O)[C@H]2O)[C@H](O)[C@@H](O)[C@@H]1O [Trehalose] |  |  | collision cross section (N2) ([2]; [M+Na]+): 174.9 Å²
65 | CC(C)CC(=O)NCC(=O)O [Isovalerylglycine] |  |  | collision cross section (N2) ([2]; [M+H]+): 155.1 Å²; collision cross section (N2) ([2]; [M-H]-): 138.14 Å²
